Reference: PMC6043591, “Rpn11-mediated ubiquitin processing in an ancestral archaeal ubiquitination system” (Nature Communications, 2018)
pKd: −log10 of the molar value.

Key:
CsJAMM = target: T1, CsJAMM (Candidatus Caldarchaeum subterraneum, UniProt E6N2R7); assay: SDS-PAGE of SAMP Csub_C0702 precursor cleavage; type: biochemical; conditions: […] SAMP Csub_C0702, […] enzyme, […] °C, pH […] min preincubation
T1 construct: gene CSUB_C0703; N-terminal His6 tag with TEV site; synthetic gene, E. coli
T1 sequence (E6N2R7 1-140): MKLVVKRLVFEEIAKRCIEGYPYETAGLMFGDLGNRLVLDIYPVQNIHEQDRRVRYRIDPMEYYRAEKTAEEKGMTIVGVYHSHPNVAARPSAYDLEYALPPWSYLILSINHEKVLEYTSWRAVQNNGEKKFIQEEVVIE

CsRpn11^Δ149–202 = target: T2, CsRpn11^Δ149–202 (Candidatus Caldarchaeum subterraneum, UniProt E6N8B9); assay: SDS-PAGE of CsUb-pre cleavage; type: biochemical; conditions: 14 µM CsUb-pre, 1.75 µM enzyme, 45 °C, pH 7.5, 10 min preincubation; proposed coordination of catalytic Zn2+
T2 construct: gene CSUB_C1473; JAMM core domain, C-terminal residues 149-202 deleted (full length 202); N-terminal His6 tag with TEV site

[1] = target: truncated CsRpn11^Δ149–202 (Candidatus Caldiarchaeum subterraneum)
[2] = target: truncated CsRpn11^Δ149–202 (Candidatus Caldiarchaeum subterraneum); assay: MST; 50 nM NT-647-labeled CsRpn11^Δ149–202 mixed with a serial 1:1 dilution of CsUb from 47 nM to 770 µM; 45 °C; Monolith NT.115, MST power 80%, laser intensity 40%; three independent experiments

Row | Molecule | SDS-PAGE of SAMP Csub_C0702 precursor cleavage (CsJAMM) | SDS-PAGE of CsUb-pre cleavage (CsRpn11^Δ149–202) | KM of CsUb-pre cleavage by Co^2+-bound CsRpn11^Δ149–202 at 45 °C, quantified from SDS-PAGE bands [1] | pKd [2]
1 | Sc1cccc2cccnc12 [8-thioquinoline] | effects on CsJAMM-mediated CsSAMP processing were significantly weaker | CsUb-pre processing by CsRpn11 was strongly affected by both 8-TQ and thiolutin |  | 
2 | CC(=O)Nc1c2sscc-2n(C)c1=O [thiolutin] | effects on CsJAMM-mediated CsSAMP processing were significantly weaker | CsUb-pre processing by CsRpn11 was strongly affected by both 8-TQ and thiolutin |  | 
3 | CsUb precursor (CsUb-pre) (natural protein) |  |  | 17.8 µM | 
4 | mature C. subterraneum ubiquitin CsUb (natural protein) |  |  |  | 4.84
